Measured values reported in PubChem BioAssay (NCI).
Several values for one entry are separate records, joined by “and”; a condition that tells them apart may be missing. Equal entries are not always repeated.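 96-well plates; 48 h exposure; 5 concentrations. Endpoints by linear interpolation between flanking doses. Not reached: highest tested concentration assigned. GI50 marks 50% less growth. TGI: concentration producing complete growth inhibition.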

Experiments:
Assay in all cases: growth of human tumour cells (NCI), 48 h
KM12 colon = test system: KM12 colon
COLO 205 colon = test system: COLO 205 colon
SNB-75 CNS = test system: SNB-75 CNS
SF-295 CNS = test system: SF-295 CNS
SK-MEL-5 melanoma = test system: SK-MEL-5 melanoma
CAKI-1 renal = test system: CAKI-1 renal
OVCAR-8 ovarian = test system: OVCAR-8 ovarian
SN12C renal = test system: SN12C renal
SW-620 colon = test system: SW-620 colon
NCI/ADR-RES ovarian = test system: NCI/ADR-RES ovarian

Compound	TGI (KM12 colon)	TGI (COLO 205 colon)	TGI (SNB-75 CNS)	TGI (SF-295 CNS)	TGI (SK-MEL-5 melanoma)	TGI (CAKI-1 renal)	TGI (OVCAR-8 ovarian)	TGI (SN12C renal)	TGI (SW-620 colon)	GI50 (KM12 colon)	GI50 (COLO 205 colon)	GI50 (SF-295 CNS)	GI50 (SK-MEL-5 melanoma)	GI50 (CAKI-1 renal)	GI50 (OVCAR-8 ovarian)	GI50 (SN12C renal)	GI50 (SW-620 colon)	GI50 (NCI/ADR-RES ovarian)	TGI (NCI/ADR-RES ovarian)	GI50 (SNB-75 CNS)
Cc1ccc(NC(=O)C2C(=O)N(c3ccc(C)c(C)c3)C(=O)/C2=N/O)cc1C (centres undefined)	> 100 µM	> 100 µM	> 100 µM	> 100 µM	> 100 µM	> 100 µM	> 100 µM	> 100 µM	37.2 µM											
O=C(CC(=O)N1N=C(c2ccccc2)C(N=Nc2ccc(Cl)cc2)C1=O)Nc1ccccc1Cl (centres undefined)	> 100 µM	> 100 µM	41.3 µM		51.4 µM	85.1 µM		> 100 µM	> 100 µM											
COC(=O)c1cc2c(c(C(=O)OC)c1O)C(=O)C=CC2=O	> 58.3 µM	> 9.1 µM and 98.8 µM	> 9.1 µM and 31.8 µM	> 56.3 µM	> 55.1 µM	> 100 µM	> 40.4 µM	> 56.3 µM	> 21.3 µM	> 9.1 µM	> 9.1 µM	> 9.1 µM	> 9.1 µM	> 100 µM	> 9.1 µM	> 9.1 µM	> 9.1 µM			
Nc1c(-c2ccc(Br)cc2)[n+]([O-])c2ccccc2[n+]1[O-]	> 100 µM	> 100 µM	> 100 µM	> 100 µM	> 100 µM	> 100 µM	> 100 µM	> 100 µM	> 100 µM											
NC(N)=NC(N)=Nc1cc2ccccc2c2ccccc12	27.2 µM	4.49 µM	19.9 µM	28.4 µM	22.8 µM		20.6 µM	19.9 µM	21.4 µM	12.3 µM	1.84 µM	13.3 µM	10.4 µM		5.15 µM	5.3 µM	6.5 µM	17 µM	43.2 µM	5.12 µM
O=C(/C=C/c1ccccc1Cl)c1ccccc1Cl	29.3 µM	44.8 µM	74.9 µM	51.2 µM	99.1 µM	38.1 µM	33.6 µM	41.4 µM	26.2 µM											
COc1cccc(NCc2nnc(Nc3ccc(Cl)cc3)c3ccccc23)c1	6.52 µM	4.01 µM	5.27 µM	8.25 µM	4.18 µM		14.7 µM	10.7 µM	8.13 µM	0.131 µM	0.492 µM	1.94 µM	0.819 µM		3.61 µM	2.52 µM	2.98 µM	2.55 µM	25 µM	0.293 µM
CN(C)C(=S)/N=c1\ss/c(=N\C(=S)N(C)C)n1-c1ccc2c(c1)OCO2	> 100 µM		> 100 µM	> 100 µM	> 100 µM	> 100 µM	> 100 µM	> 100 µM	> 100 µM											
Cc1ccc(C(=O)/C=C/c2ccccc2O)c(C)c1	> 100 µM	> 100 µM	8.01 µM	> 100 µM	> 100 µM	> 100 µM	> 100 µM	> 100 µM	> 100 µM											
